Patent US7655629B2, “Peptides and their use for the treatment of HIV infections” (priority 2002, dated 2010)
Positions of bridges follow the written chain, without caps; N, C: chain ends. Non-standard residues stand in square brackets, D forms with d. Residues, ends and D or L forms follow the SMILES beside them. 1Nal = N[C@@H](Cc1cccc2ccccc12)C(=O)O; Bta = N[C@@H](Cc1csc2ccccc12)C(=O)O; Tic = O=C(O)[C@@H]1Cc2ccccc2CN1; 3Thi = N[C@@H](Cc1ccsc1)C(=O)O; Cha = N[C@@H](CC1CCCCC1)C(=O)O

How the values were obtained:
[1] = tested on: HIV-1 NL4-3 DTV; settings: read-out: IC50 DTV, P4-CCR5 cells, peptide 2 h before infection, readout three days after infection
How it was run: (§1)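 P4-CCR5 cells (CD4, CCR5, CXCR4, HIV-1 promoter-driven β-galactosidase) pretreated 2 h with peptide, then infected with virus containing 1 ng p24 antigen and incubated overnight. Cells washed and cultured without peptide; three days post-infection infectivity read by chemiluminescent β-galactosidase assay, in quintuplicate.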

[2] = tested on: X4-tropic HIV-1 NL4-3; settings: for IC50: read-out: IC50 NL4-3, P4-CCR5 cells, HIV-1 NL4-3, peptide 2 h before infection, readout three days after infection
How it was run: as §1

Molecule | IC50 [1] | IC50 [2] | increase in anti-HIV activity in comparison to VIRIP ([2]; from IC50 against two HIV-1 strains (NL4-3, DTV))
CC[C@H](C)[C@H](NC(=O)[C@H](C)NC(=O)[C@H](CCC(=O)O)NC(=O)[C@@H](N)CC(C)C)C(=O)N1CCC[C@H]1C(=O)N[C@@H](CCSC)C(=O)N[C@@H](CO)C(=O)N[C@H](C(=O)N1CCC[C@H]1C(=O)N1CCC[C@@H]1C(=O)N[C@@H](CCC(=O)O)C(=O)N[C@H](C(=O)N1Cc2ccccc2C[C@H]1C(=O)N[C@@H](Cc1ccccc1)C(=O)N[C@@H](CC(N)=O)C(=O)N[C@@H](CCCCN)C(=O)N1CCC[C@H]1C(=O)N[C@@H](Cc1ccccc1)C(=O)N[C@H](C(=O)N[C@@H](Cc1ccccc1)C(=O)O)C(C)C)C(C)C)[C@@H](C)CC [VIR-263, LEAIPMSIPpEV(L-Tic)FNKPFVF] (H-LEAIPMSIP[dP]EV[Tic]FNKPFVF-OH) | 0.33 µM | 0.77 µM | 
CC[C@H](C)[C@H](NC(=O)[C@H](C)NC(=O)[C@H](CCC(=O)O)NC(=O)[C@@H](N)CC(C)C)C(=O)N1CCC[C@H]1C(=O)N[C@@H](CCSC)C(=O)N[C@@H](CO)C(=O)N[C@H](C(=O)N1CCC[C@H]1C(=O)N1CCC[C@@H]1C(=O)N[C@@H](CCC(=O)O)C(=O)N[C@H](C(=O)NCC(=O)N[C@@H](Cc1ccccc1)C(=O)NCC(=O)N[C@@H](CCCCN)C(=O)N1CCC[C@H]1C(=O)N[C@@H](Cc1ccccc1)C(=O)N[C@H](C(=O)N[C@@H](Cc1ccccc1)C(=O)O)C(C)C)C(C)C)[C@@H](C)CC [VIR-190, LEAIPMSIPpEVGFGKPFVF] (H-LEAIPMSIP[dP]EVGFGKPFVF-OH) | 3.11 µM | 1.84 µM | 
CC[C@H](C)[C@H](NC(=O)[C@H](CCCCN)NC(=O)[C@H](CCC(=O)O)NC(=O)[C@@H](N)CC(C)C)C(=O)N1CCC[C@H]1C(=O)N[C@@H](CCSC)C(=O)N[C@@H](CO)C(=O)N[C@H](C(=O)N1CCC[C@H]1C(=O)N1CCC[C@@H]1C(=O)N[C@@H](CCC(=O)O)C(=O)N[C@H](C(=O)N[C@@H](C)C(=O)N[C@@H](Cc1ccccc1)C(=O)N[C@@H](CC(N)=O)C(=O)N[C@@H](CCCCN)C(=O)N1CCC[C@H]1C(=O)N[C@@H](Cc1ccccc1)C(=O)N[C@H](C(=O)N[C@@H](Cc1ccccc1)C(=O)O)C(C)C)C(C)C)[C@@H](C)CC [VIR-255, LEKIPMSIPpEVAFNKPFVF] (H-LEKIPMSIP[dP]EVAFNKPFVF-OH) | 1.23 µM | 0.65 µM | 
CC[C@H](C)[C@H](NC(=O)[C@H](C)NC(=O)[C@H](CCC(=O)O)NC(=O)[C@@H](N)CC(C)C)C(=O)N1CCC[C@H]1C(=O)N[C@@H](CCSC)C(=O)N[C@@H](CO)C(=O)N[C@H](C(=O)N1CCC[C@H]1C(=O)N1CCC[C@@H]1C(=O)N[C@@H](CCC(=O)O)C(=O)N[C@@H](Cc1cccc2ccccc12)C(=O)N[C@@H](C)C(=O)N[C@@H](Cc1ccccc1)C(=O)N[C@@H](CC(N)=O)C(=O)N[C@@H](CCCCN)C(=O)N1CCC[C@H]1C(=O)N[C@@H](Cc1ccccc1)C(=O)N[C@H](C(=O)N[C@@H](Cc1ccccc1)C(=O)O)C(C)C)[C@@H](C)CC [VIR-258, LEAIPMSIPpE(1-naphthylalanine)AFNKPFVF] (H-LEAIPMSIP[dP]E[1Nal]AFNKPFVF-OH) | 0.62 µM | 0.64 µM | 
H-LEAIPMSIPPELAFAKPFVF-OH [VIR-182] | 2.97 µM | 2.25 µM | 
CC[C@H](C)[C@H](NC(=O)[C@H](C)NC(=O)[C@H](CCC(=O)O)NC(=O)[C@@H](N)CC(C)C)C(=O)N1CCC[C@H]1C(=O)N[C@@H](CCSC)C(=O)N[C@@H](CO)C(=O)N[C@H](C(=O)N1CCC[C@H]1C(=O)N1CCC[C@@H]1C(=O)N[C@@H](CCC(=O)O)C(=O)N[C@H](C(=O)N[C@@H](Cc1ccsc1)C(=O)N[C@@H](Cc1ccccc1)C(=O)N[C@@H](CC(N)=O)C(=O)N[C@@H](CCCCN)C(=O)N1CCC[C@H]1C(=O)N[C@@H](Cc1ccccc1)C(=O)N[C@H](C(=O)N[C@@H](Cc1ccccc1)C(=O)O)C(C)C)C(C)C)[C@@H](C)CC [VIR-265, LEAIPMSIPpEV(3-thienylalanine)FNKPFVF] (H-LEAIPMSIP[dP]EV[3Thi]FNKPFVF-OH) | 2.21 µM | 1.29 µM | 
CC[C@H](C)[C@H](NC(=O)[C@H](C)NC(=O)[C@H](CCC(=O)O)NC(=O)[C@@H](N)CC(C)C)C(=O)N1CCC[C@H]1C(=O)N[C@@H](CCSC)C(=O)N[C@@H](CO)C(=O)N[C@H](C(=O)N1CCC[C@H]1C(=O)N1CCC[C@@H]1C(=O)N[C@@H](CCC(=O)O)C(=O)N[C@H](C(=O)N[C@@H](Cc1ccccc1)C(=O)N[C@@H](Cc1ccccc1)C(=O)NCC(=O)N[C@@H](CCCCN)C(=O)N1CCC[C@H]1C(=O)N[C@@H](Cc1ccccc1)C(=O)N[C@H](C(=O)N[C@@H](Cc1ccccc1)C(=O)O)C(C)C)C(C)C)[C@@H](C)CC [VIR-192, LEAIPMSIPpEVFFGKPFVF] (H-LEAIPMSIP[dP]EVFFGKPFVF-OH) | 1.21 µM | 1.54 µM | 
CC[C@H](C)[C@H](NC(=O)[C@H](C)NC(=O)[C@H](CCC(=O)O)NC(=O)[C@@H](N)CC(C)C)C(=O)N1CCC[C@H]1C(=O)N[C@H]1CSSC[C@@H](C(=O)N[C@H](C(=O)N[C@@H](CC(C)C)C(=O)N[C@@H](Cc2ccccc2)C(=O)N[C@@H](CC(N)=O)C(=O)N[C@@H](CCCCN)C(=O)N2CCC[C@H]2C(=O)N[C@@H](Cc2ccccc2)C(=O)N[C@H](C(=O)N[C@@H](Cc2ccccc2)C(=O)O)C(C)C)C(C)C)NC(=O)[C@@H]2CCCN2C(=O)[C@@H]2CCCN2C(=O)[C@H]([C@@H](C)CC)NC(=O)[C@H](CO)NC1=O [VIR-163] (H-LEAIPCSIPPCVLFNKPFVF-OH; disulfide 6-11) | 0.29 µM | 0.76 µM | 
CC[C@H](C)[C@H](NC(=O)[C@@H]1CCCN1C(=O)[C@@H](NC(=O)[C@H](C)NC(=O)[C@H](CCC(=O)O)NC(=O)[C@@H](N)CC(C)C)[C@@H](C)CC)C(=O)N[C@@H](CO)C(=O)N[C@H](C(=O)N1CCC[C@H]1C(=O)N1CCC[C@@H]1C(=O)N[C@@H](CCC(=O)O)C(=O)N[C@H](C(=O)N[C@@H](C)C(=O)N[C@@H](Cc1ccccc1)C(=O)N[C@@H](CC(N)=O)C(=O)N[C@@H](CCCCN)C(=O)N1CCC[C@H]1C(=O)N[C@@H](Cc1ccccc1)C(=O)N[C@H](C(=O)N[C@@H](Cc1ccccc1)C(=O)O)C(C)C)C(C)C)[C@@H](C)CC [VIR-229, LEAIPISIPpEVAFNKPFVF] (H-LEAIPISIP[dP]EVAFNKPFVF-OH) | 2.26 µM | 1.28 µM | 
H-LEAIPMSIPPEIAFNKPFVF-OH [VIR-184] | 5.39 µM | 1.99 µM | 4 fold
CC[C@H](C)[C@H](NC(=O)[C@H](C)NC(=O)[C@H](CCC(=O)O)NC(=O)[C@@H](N)CC(C)C)C(=O)N1CCC[C@H]1C(=O)N[C@@H](CCSC)C(=O)N[C@@H](CO)C(=O)N[C@H](C(=O)N1CCC[C@H]1C(=O)N1CCC[C@@H]1C(=O)N[C@@H](CCC(=O)O)C(=O)N[C@H](C(=O)N[C@@H](CC1CCCCC1)C(=O)N[C@@H](Cc1ccccc1)C(=O)N[C@@H](CC(N)=O)C(=O)N[C@@H](CCCCN)C(=O)N1CCC[C@H]1C(=O)N[C@@H](Cc1ccccc1)C(=O)N[C@H](C(=O)N[C@@H](Cc1ccccc1)C(=O)O)C(C)C)C(C)C)[C@@H](C)CC [VIR-257, LEAIPMSIPpEV(cyclohexylalanine)FNKPFVF] (H-LEAIPMSIP[dP]EV[Cha]FNKPFVF-OH) | 0.66 µM | 0.86 µM | 
CC[C@H](C)[C@H](NC(=O)[C@H](CC(=O)O)NC(=O)[C@H](CCC(=O)O)NC(=O)[C@@H](N)CC(C)C)C(=O)N1CCC[C@H]1C(=O)N[C@@H](CCSC)C(=O)N[C@@H](CO)C(=O)N[C@H](C(=O)N1CCC[C@H]1C(=O)N1CCC[C@@H]1C(=O)N[C@@H](CCC(=O)O)C(=O)N[C@H](C(=O)N[C@@H](C)C(=O)N[C@@H](Cc1ccccc1)C(=O)N[C@@H](CC(N)=O)C(=O)N[C@@H](CCCCN)C(=O)N1CCC[C@H]1C(=O)N[C@@H](Cc1ccccc1)C(=O)N[C@H](C(=O)N[C@@H](Cc1ccccc1)C(=O)O)C(C)C)C(C)C)[C@@H](C)CC [VIR-252, LEDIPMSIPpEVAFNKPFVF] (H-LEDIPMSIP[dP]EVAFNKPFVF-OH) | 1.87 µM | 1.75 µM | 
CC[C@H](C)[C@H](NC(=O)[C@H](C)NC(=O)[C@H](CCC(=O)O)NC(=O)[C@@H](N)CC(C)C)C(=O)N1CCC[C@H]1C(=O)N[C@@H](CCSC)C(=O)N[C@@H](CO)C(=O)N[C@H](C(=O)N1CCC[C@H]1C(=O)N1CCC[C@@H]1C(=O)N[C@@H](CCC(=O)O)C(=O)N[C@H](C(=O)N[C@@H](Cc1csc2ccccc12)C(=O)N[C@@H](Cc1ccccc1)C(=O)N[C@@H](CC(N)=O)C(=O)N[C@@H](CCCCN)C(=O)N1CCC[C@H]1C(=O)N[C@@H](Cc1ccccc1)C(=O)N[C@H](C(=O)N[C@@H](Cc1ccccc1)C(=O)O)C(C)C)C(C)C)[C@@H](C)CC [VIR-264, LEAIPMSIPpEV(3-benzothienylalanine)FNKPFVF] (H-LEAIPMSIP[dP]EV[Bta]FNKPFVF-OH) | 0.7 µM | 0.59 µM | 
CC[C@H](C)[C@H](NC(=O)[C@H](C)NC(=O)[C@H](CCC(=O)O)NC(=O)[C@@H](N)CC(C)C)C(=O)N1CCC[C@H]1C(=O)N[C@@H](CCSC)C(=O)N[C@@H](CO)C(=O)N[C@H](C(=O)N1CCC[C@H]1C(=O)N1CCC[C@@H]1C(=O)N[C@@H](CCC(=O)O)C(=O)N[C@@H](Cc1ccccc1)C(=O)N[C@@H](C)C(=O)N[C@@H](Cc1ccccc1)C(=O)N[C@@H](CC(N)=O)C(=O)N[C@@H](CCCCN)C(=O)N1CCC[C@H]1C(=O)N[C@@H](Cc1ccccc1)C(=O)N[C@H](C(=O)N[C@@H](Cc1ccccc1)C(=O)O)C(C)C)[C@@H](C)CC [VIR-193, LEAIPMSIPpEFAFNKPFVF] (H-LEAIPMSIP[dP]EFAFNKPFVF-OH) | 1.38 µM | 1.74 µM | 
